The values that follow come from US11006595B2, “Rice cultivar designated ‘CL153’” (Board of Supervisors of Louisiana State University and …, priority 2016, dated 2021).

In the test the test system is ‘CL153’ rice plant. Description: Herbicide tolerance and susceptibility of rice cultivar 'CL153'. Format: in vivo, Oryza sativa. The note with it: for resistance or sensitivity of ‘CL153’ to the herbicide: at levels of the herbicide that would normally inhibit the growth of a rice plant, partly actual observations, partly assumptions based on common ancestry with ‘CL161’; for resistance of ‘CL153’ to imidazolinone herbicides: general statement, profile essentially identical to ‘CL161’. The text has this: Among others, the herbicide tolerance and susceptibility characteristics of ‘CL153’ include or are expected to include the following.

As to `CCS(=O)(=O)c1cccnc1S(=O)(=O)NC(=O)Nc1nc(OC)cc(OC)n1` [rimsulfuron], the “resistance or sensitivity of ‘CL153’ to the herbicide” value (shortened to “resistance or sensitivity of ‘CL153’”) was “sensitive”. On the same count and under the same terms, the result for `CC(C)C1(C)N=C(c2nc3ccccc3cc2C(=O)O)NC1=O` (centres unmarked) [imazaquin] reads “resistant”; that for `COC(=O)c1ccccc1S(=O)(=O)NC(=O)N(C)c1nc(C)nc(OC)n1` [tribenuron methyl], “resistant”. With `COCc1cnc(C2=NC(C)(C(C)C)C(=O)N2)c(C(=O)O)c1` (centres unmarked) [imazamox], the “resistance or sensitivity of ‘CL153’” value is recorded as “resistant” and the “resistance of ‘CL153’ to imidazolinone herbicides” value is reported as “highly resistant”.

On to `COC(=O)c1sccc1S(=O)(=O)NC(=O)Nc1nc(C)nc(OC)n1` [thifensulfuron methyl], for which the “resistance or sensitivity of ‘CL153’” value was “resistant”. Consider `Cc1cnc(C2=NC(=O)C(C)(C(C)C)N2)c(C(=O)O)c1` (centres unmarked) [imazapic], for which the “resistance or sensitivity of ‘CL153’” value is on record as “resistant”. On the same count and under the same terms, next, `CCOC(=O)c1ccccc1S(=O)(=O)NC(=O)Nc1nc(Cl)cc(OC)n1` [chlorimuron ethyl]: “sensitive”; `COC(=O)c1ccccc1S(=O)(=O)NC(=O)Nc1nc(C)cc(C)n1` [sulfometuron methyl]: “sensitive”; `CC(C)C1(C)N=C(c2ncccc2C(=O)O)NC1=O` (centres unmarked) [imazapyr]: “resistant”. Turning to `CCc1cnc(C2=NC(C)(C(C)C)C(=O)N2)c(C(=O)O)c1` (centres unmarked) [imazethapyr], the “resistance or sensitivity of ‘CL153’” value is reported as “resistant” and the “resistance of ‘CL153’ to imidazolinone herbicides” value is listed as “highly resistant”.

Consider `COC(=O)c1ccccc1S(=O)(=O)NC(=O)Nc1nc(C)nc(OC)n1` [metsulfuron methyl], for which the “resistance or sensitivity of ‘CL153’” value is “resistant”.

As for `COc1cc(OC)nc(NC(=O)NS(=O)(=O)c2ncccc2C(=O)N(C)C)n1` [nicosulfuron], the “resistance or sensitivity of ‘CL153’” value is listed as “resistant”.
